Data taken from ChEMBL document CHEMBL1152406, “Conformationally restricted homotryptamines. Part 5: 3-(trans-2-aminomethylcyclopentyl)indoles as potent selective serotonin reuptake inhibitors” (Bioorg Med Chem Lett, 2009).
pIC50: −log10 of the molar value. Active and inactive are the calls of the source. No cut-off for these calls is given here.

Tests used:
[1] = biological target: Sodium-dependent serotonin transporter (Homo sapiens, UniProt P31645); experiment: Displacement of [125I]RTI-55 from human SERT expressed in HEK293 cells; assay type: cell-based
Rattus norvegicus [2] = experiment: Increase in extracellular serotonin level in frontal cortex of awake and free moving rat at 0.3 to 3 mg/kg, po by microdialysis; assay type: functional, organism-based
Rattus norvegicus [3] = experiment: Increase in extracellular serotonin level in frontal cortex of awake and free moving rat at 5 mg/kg, po by microdialysis relative to basal level; assay type: functional
Rattus norvegicus [4] = experiment: Increase in extracellular serotonin level in frontal cortex of awake and free moving rat at 1 mg/kg, po by microdialysis relative to basal level; assay type: functional
[5] = biological target: Sodium-dependent dopamine transporter (Homo sapiens, UniProt Q01959); experiment: Displacement of [125I]RTI-55 from human DAT expressed in HEK293 cells; assay type: cell-based
[6] = biological target: Sodium-dependent noradrenaline transporter (Homo sapiens, UniProt P23975); experiment: Displacement of [125I]nisoxetine from human NET expressed in HEK293 cells; assay type: cell-based
Chain of Sodium-dependent noradrenaline transporter (P23975 whole entry): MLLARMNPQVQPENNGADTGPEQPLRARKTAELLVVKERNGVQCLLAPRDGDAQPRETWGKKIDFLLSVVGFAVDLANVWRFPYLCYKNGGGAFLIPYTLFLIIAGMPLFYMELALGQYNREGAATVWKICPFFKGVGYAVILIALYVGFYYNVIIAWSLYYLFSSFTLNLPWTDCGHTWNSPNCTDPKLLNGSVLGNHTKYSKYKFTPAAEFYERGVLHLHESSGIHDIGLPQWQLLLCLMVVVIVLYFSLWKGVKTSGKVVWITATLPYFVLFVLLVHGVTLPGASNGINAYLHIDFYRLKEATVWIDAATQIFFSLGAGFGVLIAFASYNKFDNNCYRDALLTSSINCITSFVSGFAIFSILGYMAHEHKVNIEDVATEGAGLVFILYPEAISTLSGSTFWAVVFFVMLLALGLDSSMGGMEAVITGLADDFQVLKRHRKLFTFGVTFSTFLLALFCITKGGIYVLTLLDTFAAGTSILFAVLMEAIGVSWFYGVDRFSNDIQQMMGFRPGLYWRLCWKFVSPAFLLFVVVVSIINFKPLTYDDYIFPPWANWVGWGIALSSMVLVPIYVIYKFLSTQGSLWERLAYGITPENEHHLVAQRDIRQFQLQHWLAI

Chain of Sodium-dependent serotonin transporter (P31645 whole entry): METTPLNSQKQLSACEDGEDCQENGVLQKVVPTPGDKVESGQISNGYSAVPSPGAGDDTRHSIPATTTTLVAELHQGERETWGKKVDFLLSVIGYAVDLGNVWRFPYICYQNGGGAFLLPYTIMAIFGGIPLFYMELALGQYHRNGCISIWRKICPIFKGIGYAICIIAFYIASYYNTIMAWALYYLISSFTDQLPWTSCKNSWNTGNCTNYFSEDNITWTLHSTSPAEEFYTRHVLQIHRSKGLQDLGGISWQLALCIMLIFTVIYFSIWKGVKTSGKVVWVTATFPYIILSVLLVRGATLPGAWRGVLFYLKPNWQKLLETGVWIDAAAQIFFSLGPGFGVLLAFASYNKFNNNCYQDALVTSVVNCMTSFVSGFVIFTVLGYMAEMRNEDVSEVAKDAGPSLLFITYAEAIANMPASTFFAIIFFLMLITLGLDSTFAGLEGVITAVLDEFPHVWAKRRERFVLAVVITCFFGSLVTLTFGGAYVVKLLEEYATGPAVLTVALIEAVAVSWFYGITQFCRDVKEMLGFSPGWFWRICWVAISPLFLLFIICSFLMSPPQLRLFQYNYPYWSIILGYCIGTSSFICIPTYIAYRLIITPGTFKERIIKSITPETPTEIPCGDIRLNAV
Chain of Sodium-dependent dopamine transporter (Q01959 whole entry): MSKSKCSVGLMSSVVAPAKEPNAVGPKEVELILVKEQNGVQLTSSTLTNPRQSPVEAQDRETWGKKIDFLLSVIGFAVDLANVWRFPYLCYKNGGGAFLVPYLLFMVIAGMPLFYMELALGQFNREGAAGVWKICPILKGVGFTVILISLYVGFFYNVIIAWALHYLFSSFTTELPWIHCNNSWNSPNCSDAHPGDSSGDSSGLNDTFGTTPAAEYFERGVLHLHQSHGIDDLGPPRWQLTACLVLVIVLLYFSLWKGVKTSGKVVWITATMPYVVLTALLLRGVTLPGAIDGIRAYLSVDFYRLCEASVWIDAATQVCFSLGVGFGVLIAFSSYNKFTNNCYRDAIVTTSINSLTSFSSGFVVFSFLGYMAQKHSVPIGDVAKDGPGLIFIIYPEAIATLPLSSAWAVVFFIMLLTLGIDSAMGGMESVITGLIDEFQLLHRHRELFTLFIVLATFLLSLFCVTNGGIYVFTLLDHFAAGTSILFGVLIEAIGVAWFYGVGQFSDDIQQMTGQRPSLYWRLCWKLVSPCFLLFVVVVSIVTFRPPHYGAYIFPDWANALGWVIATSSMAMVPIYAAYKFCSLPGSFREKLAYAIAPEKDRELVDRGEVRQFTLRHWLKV

| SMILES | pIC50 [1] | also measured |
| --- | --- | --- |
| CNC[C@H]1CCC[C@@H]1c1c[nH]c2ccc(C#N)cc12 (racemic) | 8.15 | – |
| CN(C)C[C@@H]1CCC[C@H]1c1c[nH]c2ccc(C#N)cc12 | 7.24 | – |
| CN(C)C[C@@H]1CCC[C@@H]1c1c[nH]c2ccc(C#N)cc12 (racemic) | 8.59 | – |
| CCN(CC)C[C@H]1CCC[C@@H]1c1c[nH]c2ccc(C#N)cc12 (racemic) | 6.62 | – |
| CCN(C)C[C@H]1CCC[C@@H]1c1c[nH]c2ccc(C#N)cc12 (racemic) | 8.00 | – |
| CN(C)C[C@H]1CCC[C@@H]1c1c[nH]c2ccc(C#N)cc12 (racemic) | 9.49 | – |
| N#Cc1ccc2[nH]cc([C@H]3CCC[C@@H]3CN3CCCC3)c2c1 (racemic) | 7.66 | – |
| CN(C)C[C@H]1CCC[C@H]1c1c[nH]c2ccc(C#N)cc12 | 6.89 | – |
| CN(C)C[C@H]1CCC[C@@H]1c1c[nH]c2ccc(C#N)cc12 [listing 1 of 2 here] | – | Activity (Rattus norvegicus [2]): Active |
| CN(C)C[C@@H]1CCC[C@@H]1c1c[nH]c2ccc(C#N)cc12 | 8.92 | – |
| CN(C)C[C@H]1CCC[C@@H]1c1c[nH]c2ccc(C#N)cc12 [listing 2 of 2 here] | 9.89 | Activity (Rattus norvegicus [3]): >300%; Activity (Rattus norvegicus [4]): >300%; pIC50 [5]: 6.16; pIC50 [6]: 5.10 |
| CCNC[C@H]1CCC[C@@H]1c1c[nH]c2ccc(C#N)cc12 (racemic) | 6.77 | – |
| CN(C)C[C@H]1C[C@@H]1c1c[nH]c2ccc(C#N)cc12 | 9.44 | pIC50 [5]: 5.38; pIC50 [6]: 5.04 |
| CN(Cc1ccccc1)C[C@H]1CCC[C@@H]1c1c[nH]c2ccc(C#N)cc12 (racemic) | 7.07 | – |
